Experimental data as given in PubChem BioAssay (NCI).
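The concentration for 50% growth inhibition is given as GI50. TGI marks complete inhibition of growth.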

Key:
Experiment in all cases: NCI anticancer screen, dose series, 384-well format
CCRF-CEM leukemia = test system: CCRF-CEM leukemia
LOX IMVI melanoma = test system: LOX IMVI melanoma
A549 NSCLC = test system: A549 NSCLC
PC-3 prostate = test system: PC-3 prostate
SF-295 CNS = test system: SF-295 CNS
DU-145 prostate = test system: DU-145 prostate
HCC-2998 colon = test system: HCC-2998 colon
BT-549 breast = test system: BT-549 breast
786-0 renal = test system: 786-0 renal
COLO 205 colon = test system: COLO 205 colon
CAKI-1 renal = test system: CAKI-1 renal
HOP-62 NSCLC = test system: HOP-62 NSCLC
SF-268 CNS = test system: SF-268 CNS
MDA-MB-231 breast = test system: MDA-MB-231 breast
UO-31 renal = test system: UO-31 renal
EKVX NSCLC = test system: EKVX NSCLC
SK-MEL-2 melanoma = test system: SK-MEL-2 melanoma
HCT-116 colon = test system: HCT-116 colon
HS 578T breast = test system: HS 578T breast
OVCAR-3 ovarian = test system: OVCAR-3 ovarian
OVCAR-4 ovarian = test system: OVCAR-4 ovarian
UACC-62 melanoma = test system: UACC-62 melanoma
HT29 colon = test system: HT29 colon
RPMI-8226 leukemia = test system: RPMI-8226 leukemia
OVCAR-5 ovarian = test system: OVCAR-5 ovarian
MOLT-4 leukemia = test system: MOLT-4 leukemia
ACHN renal = test system: ACHN renal
KM12 colon = test system: KM12 colon
HOP-92 NSCLC = test system: HOP-92 NSCLC
SNB-19 CNS = test system: SNB-19 CNS

What does the source list for `O=C(c1ccc(F)c(F)c1Nc1ccc(I)cc1F)N1CC(O)([C@@H]2CCCCN2)C1`?
GI50 (CCRF-CEM leukemia): 3350 nM; TGI (CCRF-CEM leukemia): 7670 nM; TGI (LOX IMVI melanoma): 527 nM; GI50 (A549 NSCLC): 97.5 nM; TGI (A549 NSCLC): 2730 nM; GI50 (PC-3 prostate): 7650 nM; TGI (PC-3 prostate): 19800 nM; GI50 (SF-295 CNS): 6200 nM; TGI (SF-295 CNS): 12200 nM; GI50 (DU-145 prostate): 1250 nM; TGI (DU-145 prostate): 15500 nM; GI50 (HCC-2998 colon): 10.2 nM; TGI (HCC-2998 colon): 77 nM; GI50 (BT-549 breast): 1400 nM; TGI (BT-549 breast): 9160 nM; GI50 (786-0 renal): 1520 nM; TGI (786-0 renal): 5000 nM; GI50 (COLO 205 colon): < 10 nM; TGI (COLO 205 colon): 27.4 nM; GI50 (CAKI-1 renal): 565 nM; TGI (CAKI-1 renal): 10400 nM; GI50 (HOP-62 NSCLC): 403 nM; TGI (HOP-62 NSCLC): 13500 nM; GI50 (SF-268 CNS): 8350 nM; TGI (SF-268 CNS): 20500 nM; GI50 (MDA-MB-231 breast): 172 nM; TGI (MDA-MB-231 breast): 1360 nM; GI50 (UO-31 renal): 297 nM; TGI (UO-31 renal): 3770 nM; GI50 (EKVX NSCLC): 1340 nM; TGI (EKVX NSCLC): 14200 nM; GI50 (SK-MEL-2 melanoma): 18.2 nM; TGI (SK-MEL-2 melanoma): 52.9 nM; GI50 (HCT-116 colon): 70.3 nM; TGI (HCT-116 colon): 834 nM; GI50 (HS 578T breast): 4740 nM; TGI (HS 578T breast): 15900 nM; GI50 (OVCAR-3 ovarian): 5550 nM; TGI (OVCAR-3 ovarian): 17200 nM; GI50 (OVCAR-4 ovarian): 2700 nM; TGI (OVCAR-4 ovarian): 12400 nM; GI50 (UACC-62 melanoma): < 10 nM; TGI (UACC-62 melanoma): 161 nM; GI50 (HT29 colon): 10.1 nM; TGI (HT29 colon): 4240 nM; GI50 (RPMI-8226 leukemia): 1050 nM; TGI (RPMI-8226 leukemia): 5220 nM; GI50 (OVCAR-5 ovarian): 126 nM; TGI (OVCAR-5 ovarian): 7960 nM; GI50 (MOLT-4 leukemia): 2020 nM; TGI (MOLT-4 leukemia): 4830 nM; GI50 (ACHN renal): 1490 nM; TGI (ACHN renal): 12200 nM; GI50 (KM12 colon): 136 nM; TGI (KM12 colon): 6910 nM; GI50 (HOP-92 NSCLC): 153 nM; TGI (HOP-92 NSCLC): 599 nM; GI50 (SNB-19 CNS): 5490 nM; TGI (SNB-19 CNS): 18500 nM
